Data as given in ChEMBL document CHEMBL3351292, “Structure-Based Design and Synthesis of Potent Cyclic Peptides Inhibiting the YAP-TEAD Protein-Protein Interaction” (ACS Med Chem Lett, 2014).
Where a SMILES comes first, the peptide text is derived from it.

Each compound was assayed against Transcriptional coactivator YAP1/Transcriptional enhancer factor TEF-1 (Homo sapiens) (UniProt P46937+P28347) (assay: Inhibition of YAP/ GST-TEAD1 (unknown origin) interaction at 50 uM by surface plasmon resonance assay).
Format: protein assay

Chain of Transcriptional coactivator YAP1/Transcriptional enhancer factor TEF-1 (Homo sapiens) (P28347 whole entry, looked up): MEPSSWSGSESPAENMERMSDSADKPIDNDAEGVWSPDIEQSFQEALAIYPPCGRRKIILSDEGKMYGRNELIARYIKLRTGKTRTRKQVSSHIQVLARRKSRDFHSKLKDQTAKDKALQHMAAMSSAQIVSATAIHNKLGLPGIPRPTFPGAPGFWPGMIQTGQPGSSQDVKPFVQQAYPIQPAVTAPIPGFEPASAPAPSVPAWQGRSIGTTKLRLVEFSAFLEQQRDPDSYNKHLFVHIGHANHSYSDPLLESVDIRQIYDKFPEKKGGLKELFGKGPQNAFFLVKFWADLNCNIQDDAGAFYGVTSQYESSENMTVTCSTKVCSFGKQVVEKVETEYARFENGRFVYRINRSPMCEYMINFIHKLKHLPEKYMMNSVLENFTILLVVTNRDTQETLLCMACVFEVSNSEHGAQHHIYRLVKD
Chain of Transcriptional coactivator YAP1/Transcriptional enhancer factor TEF-1 (Homo sapiens) (P46937 whole entry, looked up): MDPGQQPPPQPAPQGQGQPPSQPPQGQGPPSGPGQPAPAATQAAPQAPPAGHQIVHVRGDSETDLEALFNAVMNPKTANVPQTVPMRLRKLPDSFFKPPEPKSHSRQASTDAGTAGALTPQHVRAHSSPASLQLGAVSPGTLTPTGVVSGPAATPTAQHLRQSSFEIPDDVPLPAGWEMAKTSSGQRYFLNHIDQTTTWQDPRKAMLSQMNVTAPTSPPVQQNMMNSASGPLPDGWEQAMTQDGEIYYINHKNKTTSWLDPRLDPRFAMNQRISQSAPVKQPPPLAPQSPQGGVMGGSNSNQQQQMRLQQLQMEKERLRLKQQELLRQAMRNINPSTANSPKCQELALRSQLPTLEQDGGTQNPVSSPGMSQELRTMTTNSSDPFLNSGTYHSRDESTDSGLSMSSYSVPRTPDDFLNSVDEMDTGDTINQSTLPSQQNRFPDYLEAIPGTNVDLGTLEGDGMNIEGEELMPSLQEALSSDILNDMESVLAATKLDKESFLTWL

Row | inhibition [%] | Compound
1 | 59 | CSCC[C@H](NC(=O)[C@@H]1CCCN1C(=O)[C@@H](NC(=O)[C@@H](NC(=O)[C@H](CCC(N)=O)NC(C)=O)[C@@H](C)O)C(C)C)C(=O)N[C@@H](CCCNC(=N)N)C(=O)N[C@@H](CC(C)C)C(=O)N[C@@H](CCCNC(=N)N)C(=O)N[C@@H](CCCCN)C(=O)N[C@@H](CC(C)C)C(=O)N1CCC[C@H]1C(=O)N[C@@H](CC(=O)O)C(=O)N[C@@H](CO)C(=O)N[C@@H](Cc1ccccc1)C(=O)N[C@@H](Cc1ccccc1)C(=O)N[C@@H](CCCCN)C(=O)N1CCC[C@H]1C(=O)N1CCC[C@H]1C(=O)N[C@@H](CCC(=O)O)C(N)=O
2 | 60 | CSCC[C@H](NC(=O)[C@@H]1CCCN1C(=O)[C@@H](NC(=O)[C@@H](NC(C)=O)[C@@H](C)O)C(C)C)C(=O)N[C@@H](CCCNC(=N)N)C(=O)N[C@@H](CC(C)C)C(=O)N[C@@H](CCCNC(=N)N)C(=O)N[C@@H](CCCCN)C(=O)N[C@@H](CC(C)C)C(=O)N1CCC[C@H]1C(=O)N[C@@H](CC(=O)O)C(=O)N[C@@H](CO)C(=O)N[C@@H](Cc1ccccc1)C(=O)N[C@@H](Cc1ccccc1)C(=O)N[C@@H](CCCCN)C(=O)N1CCC[C@H]1C(=O)N1CCC[C@H]1C(=O)N[C@@H](CCC(=O)O)C(N)=O
3 | 52 | CSCC[C@H](NC(=O)[C@@H]1CCCN1C(=O)[C@@H](NC(=O)[C@H](C)NC(=O)[C@H](CCC(N)=O)NC(=O)[C@@H]1CCCN1C(C)=O)C(C)C)C(=O)N[C@@H](CCCNC(=N)N)C(=O)N[C@@H](CC(C)C)C(=O)N[C@@H](CCCNC(=N)N)C(=O)N[C@@H](CCCCN)C(=O)N[C@@H](CC(C)C)C(=O)N1CCC[C@H]1C(=O)N[C@@H](CC(=O)O)C(=O)N[C@@H](CO)C(=O)N[C@@H](Cc1ccccc1)C(=O)N[C@@H](Cc1ccccc1)C(=O)N[C@@H](CCCCN)C(=O)N1CCC[C@H]1C(=O)N1CCC[C@H]1C(=O)N[C@@H](CCC(=O)O)C(N)=O
4 | 12 | CSCC[C@H](NC(C)=O)C(=O)N[C@@H](CCCNC(=N)N)C(=O)N[C@@H](CC(C)C)C(=O)N[C@@H](CCCNC(=N)N)C(=O)N[C@@H](CCCCN)C(=O)N[C@@H](CC(C)C)C(=O)N1CCC[C@H]1C(=O)N[C@@H](CC(=O)O)C(=O)N[C@@H](CO)C(=O)N[C@@H](Cc1ccccc1)C(=O)N[C@@H](Cc1ccccc1)C(=O)N[C@@H](CCCCN)C(=O)N1CCC[C@H]1C(=O)N1CCC[C@H]1C(=O)N[C@@H](CCC(=O)O)C(N)=O (Ac-MRLRKLPDSFFKPPE-NH2)
5 | 25 | CSCC[C@H](NC(=O)[C@@H]1CCCN1C(C)=O)C(=O)N[C@@H](CCCNC(=N)N)C(=O)N[C@@H](CC(C)C)C(=O)N[C@@H](CCCNC(=N)N)C(=O)N[C@@H](CCCCN)C(=O)N[C@@H](CC(C)C)C(=O)N1CCC[C@H]1C(=O)N[C@@H](CC(=O)O)C(=O)N[C@@H](CO)C(=O)N[C@@H](Cc1ccccc1)C(=O)N[C@@H](Cc1ccccc1)C(=O)N[C@@H](CCCCN)C(=O)N1CCC[C@H]1C(=O)N1CCC[C@H]1C(=O)N[C@@H](CCC(=O)O)C(N)=O (Ac-PMRLRKLPDSFFKPPE-NH2)
6 | 26 | CSCC[C@H](NC(=O)[C@@H]1CCCN1C(=O)[C@H](C)NC(=O)[C@@H](NC(=O)[C@H](CCC(N)=O)NC(=O)[C@@H]1CCCN1C(C)=O)[C@@H](C)O)C(=O)N[C@@H](CCCNC(=N)N)C(=O)N[C@@H](CC(C)C)C(=O)N[C@@H](CCCNC(=N)N)C(=O)N[C@@H](CCCCN)C(=O)N[C@@H](CC(C)C)C(=O)N1CCC[C@H]1C(=O)N[C@@H](CC(=O)O)C(=O)N[C@@H](CO)C(=O)N[C@@H](Cc1ccccc1)C(=O)N[C@@H](Cc1ccccc1)C(=O)N[C@@H](CCCCN)C(=O)N1CCC[C@H]1C(=O)N1CCC[C@H]1C(=O)N[C@@H](CCC(=O)O)C(N)=O (Ac-PQTAPMRLRKLPDSFFKPPE-NH2)
7 | 33 | CSCC[C@H](NC(=O)[C@H](C)NC(=O)[C@@H](NC(=O)[C@@H](NC(=O)[C@H](CCC(N)=O)NC(=O)[C@@H]1CCCN1C(C)=O)[C@@H](C)O)C(C)C)C(=O)N[C@@H](CCCNC(=N)N)C(=O)N[C@@H](CC(C)C)C(=O)N[C@@H](CCCNC(=N)N)C(=O)N[C@@H](CCCCN)C(=O)N[C@@H](CC(C)C)C(=O)N1CCC[C@H]1C(=O)N[C@@H](CC(=O)O)C(=O)N[C@@H](CO)C(=O)N[C@@H](Cc1ccccc1)C(=O)N[C@@H](Cc1ccccc1)C(=O)N[C@@H](CCCCN)C(=O)N1CCC[C@H]1C(=O)N1CCC[C@H]1C(=O)N[C@@H](CCC(=O)O)C(N)=O (Ac-PQTVAMRLRKLPDSFFKPPE-NH2)
8 | 1.3 | CC(=O)N1CCC[C@H]1C(=O)N[C@@H](CCC(N)=O)C(=O)N[C@H](C(=O)N[C@H](C(=O)N1CCC[C@H]1C(=O)N[C@@H](C)C(=O)N[C@@H](CCCNC(=N)N)C(=O)N[C@@H](CC(C)C)C(=O)N[C@@H](CCCNC(=N)N)C(=O)N[C@@H](CCCCN)C(=O)N[C@@H](CC(C)C)C(=O)N1CCC[C@H]1C(=O)N[C@@H](CC(=O)O)C(=O)N[C@@H](CO)C(=O)N[C@@H](Cc1ccccc1)C(=O)N[C@@H](Cc1ccccc1)C(=O)N[C@@H](CCCCN)C(=O)N1CCC[C@H]1C(=O)N1CCC[C@H]1C(=O)N[C@@H](CCC(=O)O)C(N)=O)C(C)C)[C@@H](C)O (Ac-PQTVPARLRKLPDSFFKPPE-NH2)
9 | 23 | CSCC[C@H](NC(=O)[C@@H]1CCCN1C(=O)[C@@H](NC(=O)[C@@H](NC(=O)[C@H](CCC(N)=O)NC(=O)[C@@H]1CCCN1C(C)=O)[C@@H](C)O)C(C)C)C(=O)N[C@@H](C)C(=O)N[C@@H](CC(C)C)C(=O)N[C@@H](CCCNC(=N)N)C(=O)N[C@@H](CCCCN)C(=O)N[C@@H](CC(C)C)C(=O)N1CCC[C@H]1C(=O)N[C@@H](CC(=O)O)C(=O)N[C@@H](CO)C(=O)N[C@@H](Cc1ccccc1)C(=O)N[C@@H](Cc1ccccc1)C(=O)N[C@@H](CCCCN)C(=O)N1CCC[C@H]1C(=O)N1CCC[C@H]1C(=O)N[C@@H](CCC(=O)O)C(N)=O (Ac-PQTVPMALRKLPDSFFKPPE-NH2)
10 | 49 | CSCC[C@H](NC(=O)[C@@H]1CCCN1C(=O)[C@@H](NC(=O)[C@@H](NC(=O)[C@H](CCC(N)=O)NC(=O)[C@@H]1CCCN1C(C)=O)[C@@H](C)O)C(C)C)C(=O)N[C@@H](CCCNC(=N)N)C(=O)N[C@@H](C)C(=O)N[C@@H](CCCNC(=N)N)C(=O)N[C@@H](CCCCN)C(=O)N[C@@H](CC(C)C)C(=O)N1CCC[C@H]1C(=O)N[C@@H](CC(=O)O)C(=O)N[C@@H](CO)C(=O)N[C@@H](Cc1ccccc1)C(=O)N[C@@H](Cc1ccccc1)C(=O)N[C@@H](CCCCN)C(=O)N1CCC[C@H]1C(=O)N1CCC[C@H]1C(=O)N[C@@H](CCC(=O)O)C(N)=O (Ac-PQTVPMRARKLPDSFFKPPE-NH2)
11 | 1.7 | CSCC[C@H](NC(=O)[C@@H]1CCCN1C(=O)[C@@H](NC(=O)[C@@H](NC(=O)[C@H](CCC(N)=O)NC(=O)[C@@H]1CCCN1C(C)=O)[C@@H](C)O)C(C)C)C(=O)N[C@@H](CCCNC(=N)N)C(=O)N[C@@H](CC(C)C)C(=O)N[C@@H](C)C(=O)N[C@@H](CCCCN)C(=O)N[C@@H](CC(C)C)C(=O)N1CCC[C@H]1C(=O)N[C@@H](CC(=O)O)C(=O)N[C@@H](CO)C(=O)N[C@@H](Cc1ccccc1)C(=O)N[C@@H](Cc1ccccc1)C(=O)N[C@@H](CCCCN)C(=O)N1CCC[C@H]1C(=O)N1CCC[C@H]1C(=O)N[C@@H](CCC(=O)O)C(N)=O (Ac-PQTVPMRLAKLPDSFFKPPE-NH2)
12 | 42 | CSCC[C@H](NC(=O)[C@@H]1CCCN1C(=O)[C@@H](NC(=O)[C@@H](NC(=O)[C@H](CCC(N)=O)NC(=O)[C@@H]1CCCN1C(C)=O)[C@@H](C)O)C(C)C)C(=O)N[C@@H](CCCNC(=N)N)C(=O)N[C@@H](CC(C)C)C(=O)N[C@@H](CCCNC(=N)N)C(=O)N[C@@H](C)C(=O)N[C@@H](CC(C)C)C(=O)N1CCC[C@H]1C(=O)N[C@@H](CC(=O)O)C(=O)N[C@@H](CO)C(=O)N[C@@H](Cc1ccccc1)C(=O)N[C@@H](Cc1ccccc1)C(=O)N[C@@H](CCCCN)C(=O)N1CCC[C@H]1C(=O)N1CCC[C@H]1C(=O)N[C@@H](CCC(=O)O)C(N)=O (Ac-PQTVPMRLRALPDSFFKPPE-NH2)
13 | 0 | CSCC[C@H](NC(=O)[C@@H]1CCCN1C(=O)[C@@H](NC(=O)[C@@H](NC(=O)[C@H](CCC(N)=O)NC(=O)[C@@H]1CCCN1C(C)=O)[C@@H](C)O)C(C)C)C(=O)N[C@@H](CCCNC(=N)N)C(=O)N[C@@H](CC(C)C)C(=O)N[C@@H](CCCNC(=N)N)C(=O)N[C@@H](CCCCN)C(=O)N[C@@H](C)C(=O)N1CCC[C@H]1C(=O)N[C@@H](CC(=O)O)C(=O)N[C@@H](CO)C(=O)N[C@@H](Cc1ccccc1)C(=O)N[C@@H](Cc1ccccc1)C(=O)N[C@@H](CCCCN)C(=O)N1CCC[C@H]1C(=O)N1CCC[C@H]1C(=O)N[C@@H](CCC(=O)O)C(N)=O (Ac-PQTVPMRLRKAPDSFFKPPE-NH2)
14 | 0 | CSCC[C@H](NC(=O)[C@@H]1CCCN1C(=O)[C@@H](NC(=O)[C@@H](NC(=O)[C@H](CCC(N)=O)NC(=O)[C@@H]1CCCN1C(C)=O)[C@@H](C)O)C(C)C)C(=O)N[C@@H](CCCNC(=N)N)C(=O)N[C@@H](CC(C)C)C(=O)N[C@@H](CCCNC(=N)N)C(=O)N[C@@H](CCCCN)C(=O)N[C@@H](CC(C)C)C(=O)N[C@@H](C)C(=O)N[C@@H](CC(=O)O)C(=O)N[C@@H](CO)C(=O)N[C@@H](Cc1ccccc1)C(=O)N[C@@H](Cc1ccccc1)C(=O)N[C@@H](CCCCN)C(=O)N1CCC[C@H]1C(=O)N1CCC[C@H]1C(=O)N[C@@H](CCC(=O)O)C(N)=O (Ac-PQTVPMRLRKLADSFFKPPE-NH2)
15 | 1.6 | CSCC[C@H](NC(=O)[C@@H]1CCCN1C(=O)[C@@H](NC(=O)[C@@H](NC(=O)[C@H](CCC(N)=O)NC(=O)[C@@H]1CCCN1C(C)=O)[C@@H](C)O)C(C)C)C(=O)N[C@@H](CCCNC(=N)N)C(=O)N[C@@H](CC(C)C)C(=O)N[C@@H](CCCNC(=N)N)C(=O)N[C@@H](CCCCN)C(=O)N[C@@H](CC(C)C)C(=O)N1CCC[C@H]1C(=O)N[C@@H](CC(=O)O)C(=O)N[C@@H](C)C(=O)N[C@@H](Cc1ccccc1)C(=O)N[C@@H](Cc1ccccc1)C(=O)N[C@@H](CCCCN)C(=O)N1CCC[C@H]1C(=O)N1CCC[C@H]1C(=O)N[C@@H](CCC(=O)O)C(N)=O (Ac-PQTVPMRLRKLPDAFFKPPE-NH2)
16 | 4 | CSCC[C@H](NC(=O)[C@@H]1CCCN1C(=O)[C@@H](NC(=O)[C@@H](NC(=O)[C@H](CCC(N)=O)NC(=O)[C@@H]1CCCN1C(C)=O)[C@@H](C)O)C(C)C)C(=O)N[C@@H](CCCNC(=N)N)C(=O)N[C@@H](CC(C)C)C(=O)N[C@@H](CCCNC(=N)N)C(=O)N[C@@H](CCCCN)C(=O)N[C@@H](CC(C)C)C(=O)N1CCC[C@H]1C(=O)N[C@@H](CC(=O)O)C(=O)N[C@@H](CO)C(=O)N[C@@H](C)C(=O)N[C@@H](Cc1ccccc1)C(=O)N[C@@H](CCCCN)C(=O)N1CCC[C@H]1C(=O)N1CCC[C@H]1C(=O)N[C@@H](CCC(=O)O)C(N)=O (Ac-PQTVPMRLRKLPDSAFKPPE-NH2)
